According to patent US20230054887A1, “SWEETENING AND TASTE-MASKING COMPOSITIONS, PRODUCTS AND USES THEREOF” (HEALTHTECH BIO ACTIVES, S.L.U., priority 2017, published 2023):

Assays:
Type in all cases: in vivo
[1] = Taste profile by calibrated taste panel at concentrations equisweet to 3% sucrose; conditions: 0- to 5-point scale
Method: The overall taste profile achieved with the sweetening composition of the present invention was evaluated and compared with the target taste profile of sucrose.
For this assay, all samples were evaluated at the same sweetness level, so each sample was used at a concentration which was equisweet to 3% sucrose. For each sample, the following parameters were evaluated: • Time to first sweetness detection • Time to maximum sweetness • Lingering (time for the sweetness to disappear) • Off-flavour: menthol, liquorice (any tastes that are different from sweetness) • Mouthfeel (density, i.e., the perceived viscosity in the mouth)
These evaluations were carried out by a calibrated taste panel, and conducted at room temperature.
Each of those parameters was evaluated on a 0- to 5-point scale. The values for sucrose were the reference, and were considered the target to emulate.

[2] = Sweetening synergy sensory test: concentration equisweet to sucrose reference solutions in water, expert panel; conditions: for Relative sweetening power: ratio sucrose concentration / equisweet concentration; for Equisweet concentration: room temperature
Method: A sensory test was performed to assess the sweetening synergism achieved with the composition of the invention (Examples A and B), and this effect was also compared to the effect obtained with analogous compositions containing beta-cyclodextrin (Comparative Examples A and B). Further compositions of the present invention (Examples C, D and E) were also assessed in this sensory test.
A group of expert panellists in sweet descriptors evaluated the sweetness of the different compositions as well as that of the ingredients NHDC, beta-cyclodextrin and gamma-cyclodextrin used alone.
Each evaluated sweetening agent was dissolved in water at different concentrations, at room temperature. The panel then determined, for each product, the concentration that was equisweet to the reference solutions of 1% and 3% sucrose in water. The results are summarized in Table 3 (Examples A and B are abbreviated as Ex. A and Ex. B, respectively, and the Comparative Examples A and B are abbreviated as Comp. A and Comp. B, respectively).
Since beta- and gamma-cyclodextrins are also sweet compounds, the equisweet concentrations of both cyclodextrins were also determined by the test panel to assess their possible contribution to the sweetness of the composition. […] Therefore, as the equisweet concentrations of both cyclodextrins are at least three orders of magnitude larger than those of NHDC, it was concluded that their contribution to the sweetness was negligible.
A more quantitative evaluation of the sweetness synergy provided by the compositions of the present invention was performed by comparing the real measured sweetness of the compositions comprising gamma-cyclodextrin and NHDC with the theoretical sweetness expected from the sum of the individual contribution of each component in the composition.
To this end, the relative sweetening power of each component was first calculated. For comparative purposes, the relative sweetening power of beta-cyclodextrin was also calculated. The relative sweetening power of a given compound, at a given sweetness level, indicates how many times sweeter this compound is than sucrose. It is therefore calculated as the ratio between the concentration of sucrose and the equisweet concentration of each ingredient, for each sweetness level.
From the relative sweetening power of each ingredient, it is possible to calculate the expected sweetness (sucrose equivalence) of a blend of those ingredients, according to Formula I:
Expected sweetness (sucrose equivalence) of a blend C1+C2=Concentration of compound C1×relative sweetening power of compound C1+Concentration of compound C2×relative sweetening power of compound C2
Then, the sweetness synergy of a blend of components can be calculated according to Formula II: […]
As disclosed above in Example 3, the relative sweetening power of a given compound, at a given sweetness level, indicates how many times sweeter than sucrose the compound is, and the value is calculated as the ratio between the concentration of sucrose and the equisweet concentration of the compound.

[3] = Masking bitterness of quinine, test panel, equibitter solution; conditions: 250 ppm quinine
Method: The bitter masking effect against quinine was assayed, following an analogous procedure to the one used in Example 10 for paracetamol.
The following substances were assayed: NHDC alone, beta-cyclodextrin alone, a composition comprising NHDC and beta-cyclodextrin in a molar ratio 1:1 (Example F) and a composition comprising NHDC and beta-cyclodextrin in a molar ratio 1:3 (Example G).
Analogously to Example 10, several aqueous solutions were prepared, each containing 250 ppm of quinine and different concentrations of the tested substance, namely, 5, 25, 50, 75 and 100 ppm. For each tested solution, a test panel determined the equibitter quinine solution, and the masking effect was calculated using a formula analogous to formula III (substituting 5000 with […]).
The masking synergies between beta-cyclodextrin and NHDC in Examples F and G were calculated following an analogous procedure to the one disclosed in Example 10. Therefore, using the molecular weight of each component, the amounts of beta-cyclodextrin and NHDC contained in each amount of the combinations of Examples F and G were calculated and, then, the antibittering contribution of each component was calculated on the basis of the data of Table 19. The expected masking effect was calculated as the sum of the contributions of each component, and, finally, the masking synergy was calculated (using Formula IV).

[4] = Masking bitterness of paracetamol, calibrated test panel, equibitter solution; conditions: 5000 ppm paracetamol
Method: The bitter masking effect against paracetamol was assayed. The anti-bittering effect was measured as a dose-response profile vs. a solution of paracetamol.
The following substances were assayed: NHDC alone, gamma-cyclodextrin alone and compositions comprising NHDC and gamma-cyclodextrin in a molar ratio 1:3 (Example B), 1.5:1 (Example C), 1:6 (Example D) and 1:10 (Example E).
For evaluating the masking effect of each substance, several aqueous solutions were prepared, each containing 5000 ppm of paracetamol and different concentrations of the tested substance, namely, 5, 25, 50, 75 and 100 ppm.
A calibrated test panel compared each solution with several solutions of paracetamol in water at different concentrations, and determined the equibitter paracetamol solution. The equibitter solution was calculated as the average of all the evaluations of the panel.
The masking effect was then calculated from the reference amount of paracetamol contained in each tested solution (5000 ppm) and the amount of paracetamol in the equibitter solution, using the following formula (Formula III): […]
For calculating the masking synergies between gamma-cyclodextrin and NHDC, first, for each amount of the combination (Examples A-E), using the molecular weight of each component, the amounts of gamma-cyclodextrin and NHDC contained therein were calculated. For example, 100 ppm of Example B contain 13.61 ppm of NHDC and 86.39 ppm of gamma-cyclodextrin. Then, the antibittering contribution of each component in the composition was calculated, on the basis of the data of Table 13. For example, 13.61 ppm of NHDC provide 9.44% masking effect and 86.39 ppm of gamma-cyclodextrin provide 5.46% masking effect (the antibittering effects for each specific concentration was calculated by interpolation of the data points in Table 13). Therefore, the expected masking effect is calculated as the sum of the contributions of each component. For example, the expected masking effect of 100 ppm of Example B is 14.90 (i.e., 9.44 plus 5.46).
Finally, the masking synergy is calculated using Formula IV: […]
The masking effect of Examples C (NHDC:gCD 1.5:1), D (NHDC:gCD 1:6) and E (NHDC:gCD 1:10) was also evaluated. Aqueous solutions were prepared, each one of them containing 5000 ppm of paracetamol and different concentrations of each one of the tested formulations Ex. C-E, namely, 25 and 50 ppm. Results are disclosed in Tables 15 to 17.

[5] = equisweet to 1% sucrose in water
[6] = equisweet to 3% sucrose in water

Row | SMILES | Lingering [1] | Mouthfeel (density) [1] | Off-flavour: menthol, licorice [1] | Time to first sweetness [1] | Time to maximum sweetness [1] | Total sweetness [1] | Relative sweetening power ([2]; 1% sucrose level) | Relative sweetening power ([2]; 3% sucrose level) | Equisweet concentration [2, 5] [ppm] | Equisweet concentration [2, 6] [ppm] | Masking effect (real) ([3]; tested substance 5 ppm) [%] | Masking effect (real) ([3]; tested substance 25 ppm) [%] | Masking effect (real) ([3]; tested substance 50 ppm) [%] | Masking effect (real) ([3]; tested substance 75 ppm) [%] | Masking effect (real) ([3]; tested substance 100 ppm) [%] | Masking effect (real) ([4]; tested substance 5 ppm) [%] | Masking effect (real) ([4]; tested substance 25 ppm) [%] | Masking effect (real) ([4]; tested substance 50 ppm) [%] | Masking effect (real) ([4]; tested substance 75 ppm) [%] | Masking effect (real) ([4]; tested substance 100 ppm) [%]
1 | OC[C@H]1O[C@@](CO)(O[C@H]2O[C@H](CO)[C@@H](O)[C@H](O)[C@H]2O)[C@@H](O)[C@@H]1O [Sucrose, sucrose] | 2.00 | 4.00 | 0.00 | 1.00 | 2.00 | 5.00 | – | – | – | – | – | – | – | – | – | – | – | – | – | –
2 | OC[C@H]1O[C@@H]2O[C@H]3[C@H](O)[C@@H](O)[C@@H](O[C@H]4[C@H](O)[C@@H](O)[C@@H](O[C@H]5[C@H](O)[C@@H](O)[C@@H](O[C@H]6[C@H](O)[C@@H](O)[C@@H](O[C@H]7[C@H](O)[C@@H](O)[C@@H](O[C@H]8[C@H](O)[C@@H](O)[C@@H](O[C@H]1[C@H](O)[C@H]2O)O[C@@H]8CO)O[C@@H]7CO)O[C@@H]6CO)O[C@@H]5CO)O[C@@H]4CO)O[C@@H]3CO [bCD, Beta-Cyclodextrin] | – | – | – | – | – | – | 0.8333 | 0.4286 | 12000 | 70000 | 0.00 | 6.67 | 11.67 | 16.67 | 13.33 | – | – | – | – | –
3 | OC[C@H]1O[C@@H]2O[C@H]3[C@H](O)[C@@H](O)[C@@H](O[C@H]4[C@H](O)[C@@H](O)[C@@H](O[C@H]5[C@H](O)[C@@H](O)[C@@H](O[C@H]6[C@H](O)[C@@H](O)[C@@H](O[C@H]7[C@H](O)[C@@H](O)[C@@H](O[C@H]8[C@H](O)[C@@H](O)[C@@H](O[C@H]9[C@H](O)[C@@H](O)[C@@H](O[C@H]1[C@H](O)[C@H]2O)O[C@@H]9CO)O[C@@H]8CO)O[C@@H]7CO)O[C@@H]6CO)O[C@@H]5CO)O[C@@H]4CO)O[C@@H]3CO [gCD, gamma-cyclodextrin] | – | – | – | – | – | – | 0.4000 | 0.3529 | 25000 | 85000 | – | – | – | – | – | 1.00 | 2.00 | 4.00 | 5.00 | 6.00
